Data taken from article PMC7473772 (eLife, 2020).
Values joined by “and” are separate entries in the source; they are usually repeats but may differ in a detail not shown here. Equal entries are not always repeated. Where two headings read alike, the source gives them in different places.

Key:
Assay type in all cases: cell-based, Trypanosoma brucei brucei
[1] = tested on: tbaqp2/tbaqp3 null cells expressing TbAQP2 L218M; assay: microbe, parasite or virus in culture
[2] = tested on: tbaqp2/tbaqp3 null cells expressing TbAQP2^W192G
[3] = tested on: tbaqp2/tbaqp3 null cells expressing TbAQP2 L84W; assay: microbe, parasite or virus in culture
[4] = tested on: tbaqp2/tbaqp3 null cells expressing TbAQP3
[5] = tested on: tbaqp2/tbaqp3 null cells expressing TbAQP2 L118W; assay: microbe, parasite or virus in culture
[6] = tested on: tbaqp2/tbaqp3 null cells expressing TbAQP2 L218W; assay: microbe, parasite or virus in culture
[7] = tested on: tbaqp2/tbaqp3 null cells expressing TbAQP2^I190T/W192G
[8] = tested on: tbaqp2/tbaqp3 null cells expressing TbAQP2^S131P/S263A
[9] = tested on: tbaqp2/tbaqp3 null cells expressing TbAQP3^W102I/R256L/Y250L
[10] = tested on: tbaqp2/tbaqp3 null cells expressing TbAQP2 L84M; assay: microbe, parasite or virus in culture
[11] = tested on: tbaqp2/tbaqp3 null cells expressing TbAQP2^L264R
[12] = tested on: tbaqp2/tbaqp3 null cells expressing TbAQP2WT; assay: microbe, parasite or virus in culture
[13] = tested on: tbaqp2/tbaqp3 null cells expressing TbAQP2 L118M; assay: microbe, parasite or virus in culture
[14] = tested on: tbaqp2/tbaqp3 null cells expressing TbAQP3^W102I/R256L
[15] = tested on: tbaqp2/tbaqp3 null cells expressing TbAQP2^I110W
[16] = tested on: tbaqp2/tbaqp3 null cells expressing TbAQP2^I190T
[17] = tested on: tbaqp2/tbaqp3 null cells expressing TbAQP2^L258Y
tbaqp2/tbaqp3 null cells = assay: microbe, parasite or virus in culture

Cl.Cl.NCCS[As](SCCN)c1ccc(Nc2nc(N)nc(N)n2)cc1 [Cymelarsan]
EC50, MEAN (% KO) [1]: 58.15 % KO | EC50 ([1]; read-out: EC50, MEAN): 11.2 nM | EC50 ([1]; read-out: EC50, single repeats): 11.4 nM and 11.3 nM and 10.9 nM and 12.3 nM and 12.4 nM and 15.8 nM | EC50 as percent of AQP2/3 null EC50, MEAN [2]: 42.01% | EC50 as percent of AQP2/3 null EC50, single repeats [2]: 38.89% and 33.6754% and 48.5349% and 30.3438% and 47.7536% and 38.5508% and 45.4365% and 52.8716% | EC50 (% of aqp2/aqp3 null), MEAN [3]: 100.47 % of aqp2/aqp3 null | EC50 (% of aqp2/aqp3 null), single repeats [3]: 103.60 % of aqp2/aqp3 null and 103.34 % of aqp2/aqp3 null and 94.46 % of aqp2/aqp3 null | EC50 ([3]; read-out: EC50, MEAN): 20 nM | EC50 ([3]; read-out: EC50, single repeats): 20.6 nM (2×) and 18.8 nM | EC50, percent of AQP2/3 null EC50 [4]: 114 ± 5% | EC50 (% of aqp2/aqp3 null), MEAN [5]: 92.14 % of aqp2/aqp3 null | EC50 (% of aqp2/aqp3 null), single repeats [5]: 88.70 % of aqp2/aqp3 null and 124.82 % of aqp2/aqp3 null and 62.91 % of aqp2/aqp3 null | EC50 ([5]; read-out: EC50, MEAN): 18.4 nM | EC50 ([5]; read-out: EC50, single repeats): 17.7 nM and 24.9 nM and 12.5 nM | EC50 (% of aqp2/aqp3 null), MEAN [6]: 94.01 % of aqp2/aqp3 null | EC50 (% of aqp2/aqp3 null), single repeats [6]: 100.13 % of aqp2/aqp3 null and 113.78 % of aqp2/aqp3 null and 68.13 % of aqp2/aqp3 null | EC50 ([6]; read-out: EC50, MEAN): 18.7 nM | EC50 ([6]; read-out: EC50, single repeats): 20 nM and 22.7 nM and 13.6 nM | EC50 as percent of AQP2/3 null EC50, MEAN [7]: 95.01% | EC50 as percent of AQP2/3 null EC50, single repeats [7]: 84.5691% and 96.0784% and 104.69% and 94.6857% | EC50, percent of AQP2/3 null EC50 [8]: 58.29% | EC50, percent of AQP2/3 null EC50 [9]: 159 ± 8% | EC50, MEAN (% KO) [10]: 62.94 % KO | EC50 ([10]; read-out: EC50, MEAN): 13.9 nM | EC50 ([10]; read-out: EC50, single repeats): 14.7 nM and 14.5 nM and 12.4 nM and 13.7 nM and 10.5 nM and 17.1 nM | EC50, percent of AQP2/3 null EC50 [11]: 99.62% | EC50 (% of aqp2/aqp3 null), MEAN [12]: 14.85 % of aqp2/aqp3 null | EC50, MEAN (% KO) [12]: 21.40 % KO | EC50, percent of AQP2/3 null EC50 [12]: 11.82% and 12.84% and 17.72% and 13.38% | EC50 as percent of AQP2/3 null EC50, MEAN [12]: 12.527% and 12.55% | EC50 (% of aqp2/aqp3 null), single repeats [13]: 106.00 % of aqp2/aqp3 null and 109.38 % of aqp2/aqp3 null and 101.17 % of aqp2/aqp3 null and 149.03 % of aqp2/aqp3 null and 147.52 % of aqp2/aqp3 null | EC50, MEAN (% KO) [13]: 122.62 % KO | EC50 ([13]; read-out: EC50, MEAN): 34.3 nM | EC50 ([13]; read-out: EC50, single repeats): 34.5 nM and 35.6 nM and 32.9 nM and 24.6 nM and 24.4 nM | EC50, percent of AQP2/3 null EC50 [14]: 105 ± 8% | EC50, percent of AQP2/3 null EC50 [15]: 106.64% | EC50 as percent of AQP2/3 null EC50, MEAN [16]: 64.67% | EC50, percent of AQP2/3 null EC50 [17]: 33.16% | EC50 (% of aqp2/aqp3 null), MEAN (tbaqp2/tbaqp3 null cells): 100.00 % of aqp2/aqp3 null | EC50 (% of aqp2/aqp3 null), single repeats (tbaqp2/tbaqp3 null cells): 100.09 % of aqp2/aqp3 null and 107.11 % of aqp2/aqp3 null and 92.80 % of aqp2/aqp3 null and 105.96 % of aqp2/aqp3 null and 97.29 % of aqp2/aqp3 null and 96.75 % of aqp2/aqp3 null and 92.36 % of aqp2/aqp3 null and 100.54 % of aqp2/aqp3 null | EC50, MEAN (% KO) (tbaqp2/tbaqp3 null cells): 100.00 % KO | EC50, percent of AQP2/3 null EC50 (tbaqp2/tbaqp3 null cells): 100.00% | EC50 as percent of AQP2/3 null EC50, MEAN (tbaqp2/tbaqp3 null cells): 100.00% | EC50 as percent of AQP2/3 null EC50, single repeats (tbaqp2/tbaqp3 null cells): 100.0% | EC50 (tbaqp2/tbaqp3 null cells; read-out: EC50, MEAN): 19.9 nM
